Experimental data reported in patent US12691109B2, “Bifunctional aggregation-induced emission luminogen for monitoring and killing of multidrug-resistant bacteria” (The Hong Kong University of Science and Technology, priority 2018, dated 2026).

Test system: MDR S. epidermidis-infected wounds
Assay: Bacteria-infected full-thickness skin wound model on rats
Assay type: in vivo, Wistar rats
Text: FIGS. 26A-D show In vivo evaluation of TriPE-NT in treatment of bacteria-infected wounds on rats. FIG. 26A illustrates the process of establishing bacteria-infected full-thickness skin wound models on rats. […] FIG. 26C is a graph plotting the proportion of the E. coli and MDR E. coli infected wound area on day 3 and day 7 after the injury. FIG. 26D is a graph plotting the proportion of the S. epidermidis and MDR S. epidermidis infected wound area on day 3 and day 7 after the injury (each experiment was repeated at least 5 times).
To further evaluate the anti-bacterial activity of TriPE-NT in vivo, the performance of TriPE-NT on bacteria-infected wounds of rats was tested. E. coli-, MDR E. coli-, S. epidermidis or MDR S. epidermidis-infected, full-thickness skin wounds were established on the dorsal skin of the Wistar rats (FIG. 26A). The macroscopic appearance of the healing processes of the wounds was captured at different time points (FIG. 26B).
Hematoxylin and eosin (HE) staining was carried out for evaluating the wound healing of the sectioned tissues of the E. coli-, MDR E. coli-, S. epidermidis- and MDR S. epidermidis-infected wounds on the Wistar rats on day 3 and day 7 post-injury (FIG. 28). […] Fibroblasts can secret collagens which accelerate wound reconstruction, that means the TriPE-NT plus light irradiation can promote the wound healing.

Structure (SMILES): COc1ccc(C(=Cc2ccc(-c3ccc4c5c(cccc35)C(=O)N(CCCCn3c[n+](Cc5ccc(F)cc5F)cn3)C4=O)cc2)c2ccc(OC)cc2)cc1 [TriPE-NT]
- wound size, MDR S. epidermidis-infected wounds (day 3 post-injury, TriPE-NT plus light vs control): no apparent difference
- HE staining of wound tissue, invaded lymphocytes, MDR S. epidermidis-infected wounds (day 3 post-injury, TriPE-NT plus light vs untreated): reduced the inflammatory reactions
- wound size, MDR S. epidermidis-infected wounds (day 7 post-injury, TriPE-NT plus light (4 mW cm^−2, 30 min) vs control): significantly smaller sizes
- HE staining of wound tissue, MDR S. epidermidis-infected wounds (day 7 post-injury, TriPE-NT plus light vs control): appearance of fibroblasts and newly formed squamous epithelial layers
